# Where a name gives a salt, the structure may show the parent alone.
# Experiments:
# plasmin = biological target: T1, plasmin (Homo sapiens, UniProt P00747); assay: Inhibition of plasmin (Ki); type: biochemical; settings: Table 26
# T1 construct: trypsin and the related enzymes thrombin, plasmin, factor Xa, tPA
# tPA = tPA (Homo sapiens, UniProt P00750); assay: Inhibition of tPA (Ki); type: biochemical; settings: Table 26
# factor XIIa = biological target: T2, factor XIIa (Homo sapiens, UniProt P00748); assay: Inhibition of factor XIIa (Ki); type: biochemical; settings: Table 26
# T2 construct: glandular kallikrein, factor XIIa and plasma kallikrein
# T2 sequence (P00748 373-615 limits assumed): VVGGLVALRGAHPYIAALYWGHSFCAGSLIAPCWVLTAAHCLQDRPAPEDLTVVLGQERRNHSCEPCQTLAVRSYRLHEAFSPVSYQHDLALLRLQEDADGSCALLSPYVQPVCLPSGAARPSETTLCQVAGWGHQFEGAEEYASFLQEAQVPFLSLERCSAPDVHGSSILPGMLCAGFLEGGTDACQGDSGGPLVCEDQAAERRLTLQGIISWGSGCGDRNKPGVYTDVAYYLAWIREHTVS
# human plasma = settings: in vitro, FIG. 4
# Method: Various coagulation tests were used in vitro to determine the efficacy of the inhibitors towards the thrombin-induced coagulation of its natural substrate fibrinogen. For that purpose, the thrombin time (TT), the activated partial thromboplastin time (aPTT) and the prothrombin time (PT, Quick value) were determined in human plasma.
# [1] = cited from earlier work
# [2] = Plasma concentration in rats after subcutaneous administration (HPLC); settings: rat, plasma, sc, 5 mg/kg
# Method: (§1) For the pharmacokinetic characterization, the plasma concentration of selected derivatives was determined in rats after intravenous (i.v.), subcutaneous (s.c.) and peroral (p.o.) application according to the following three-step procedure:
# (§2) 1. A physiological NaCl solution of the substance to be tested was submitted to high pressure liquid chromatography (HPLC) in order to determine its characteristic substance-specific retention time with the chosen test conditions.
# (§3) 2. The substance to be tested was diluted in vitro in rat plasma. This solution was also submitted to HPLC to see whether the characteristic peak of the substance once again appeared at the substance-specific retention time.
# (§4) 3. […] Blood samples were taken at time intervals of 15 minutes, from which plasma samples were prepared by centrifugation; those samples were also submitted to HPLC to see whether the characteristic peak of the substance appeared again at the substance-specific retention time.
# plasma kallikrein = biological target: T3, plasma kallikrein (Homo sapiens, UniProt P03952); assay: Inhibition of plasma kallikrein (Ki); type: biochemical; settings: Table 26
# T3 construct: glandular kallikrein, factor XIIa and plasma kallikrein
# trypsin = biological target: T4, trypsin (Bos taurus, UniProt P00760); assay: Inhibition of trypsin (Ki); type: biochemical; settings: Table 26
# T4 sequence (P00760 24-246): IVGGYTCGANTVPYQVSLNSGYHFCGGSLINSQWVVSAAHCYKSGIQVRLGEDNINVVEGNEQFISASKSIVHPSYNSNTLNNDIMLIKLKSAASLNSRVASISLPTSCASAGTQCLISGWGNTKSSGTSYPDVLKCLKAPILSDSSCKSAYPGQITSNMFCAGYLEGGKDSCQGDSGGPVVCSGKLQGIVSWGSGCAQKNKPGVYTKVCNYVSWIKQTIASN
# [3] = system: thrombin-induced plasma coagulation; assay: Anticoagulant effect in vivo, thrombin-induced plasma coagulation of plasma of treated rats; design: species or system rat; settings: after i.v., s.c. and p.o. administration; FIG. 5
# Method: After i.v., s.c. and p.o. administration of the compounds to be tested, the anticoagulant effect was determined in plasma of experimental animals (illustrated for compound 123 in FIG. 5).
# glandular kallikrein = glandular kallikrein (Sus scrofa, UniProt P00752); assay: Inhibition of glandular kallikrein (Ki); type: biochemical; settings: Table 26; read-out: Ki, Gland. Kallikrein
# [4] = Plasma concentration in rats after oral administration (HPLC); settings: rat, plasma, po, 100 mg/kg
# Method: as §1, §2, §3, §4
# factor Xa = factor Xa (Bos taurus, UniProt P00743); assay: Inhibition of factor Xa (dissociation constant Ki); type: biochemical; settings: Tables 19-25; read-out: Ki, Factor Xa
# thrombin = thrombin (Bos taurus, UniProt P00735); assay: Inhibition of thrombin (dissociation constant Ki); type: biochemical
# [5] = Plasma concentration in rats after intravenous administration (HPLC)
# Method: as §1, §2, §3, §4
# in vivo = settings: mouse
# T1 sequence (P00747 581-810 limits assumed): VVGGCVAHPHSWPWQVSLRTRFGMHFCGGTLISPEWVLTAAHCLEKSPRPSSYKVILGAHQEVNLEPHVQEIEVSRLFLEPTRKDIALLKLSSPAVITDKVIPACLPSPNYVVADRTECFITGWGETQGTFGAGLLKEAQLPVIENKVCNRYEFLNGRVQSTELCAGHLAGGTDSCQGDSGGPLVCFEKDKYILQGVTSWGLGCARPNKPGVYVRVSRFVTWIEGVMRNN
# T1 sequence (P00747 97-580 partner limits assumed): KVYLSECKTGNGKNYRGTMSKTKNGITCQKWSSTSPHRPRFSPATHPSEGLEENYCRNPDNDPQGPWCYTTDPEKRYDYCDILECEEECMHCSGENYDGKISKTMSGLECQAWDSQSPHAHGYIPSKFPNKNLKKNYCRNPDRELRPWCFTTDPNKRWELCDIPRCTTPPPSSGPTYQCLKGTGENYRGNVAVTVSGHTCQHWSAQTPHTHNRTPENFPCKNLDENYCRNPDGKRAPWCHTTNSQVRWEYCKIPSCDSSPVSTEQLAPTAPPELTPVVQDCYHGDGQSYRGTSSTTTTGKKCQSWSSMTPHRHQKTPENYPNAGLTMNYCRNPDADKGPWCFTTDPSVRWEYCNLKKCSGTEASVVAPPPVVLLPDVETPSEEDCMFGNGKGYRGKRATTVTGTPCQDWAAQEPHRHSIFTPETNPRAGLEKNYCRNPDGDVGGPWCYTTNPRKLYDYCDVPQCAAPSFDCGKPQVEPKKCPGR
# Chain of tPA (P00750 36-562): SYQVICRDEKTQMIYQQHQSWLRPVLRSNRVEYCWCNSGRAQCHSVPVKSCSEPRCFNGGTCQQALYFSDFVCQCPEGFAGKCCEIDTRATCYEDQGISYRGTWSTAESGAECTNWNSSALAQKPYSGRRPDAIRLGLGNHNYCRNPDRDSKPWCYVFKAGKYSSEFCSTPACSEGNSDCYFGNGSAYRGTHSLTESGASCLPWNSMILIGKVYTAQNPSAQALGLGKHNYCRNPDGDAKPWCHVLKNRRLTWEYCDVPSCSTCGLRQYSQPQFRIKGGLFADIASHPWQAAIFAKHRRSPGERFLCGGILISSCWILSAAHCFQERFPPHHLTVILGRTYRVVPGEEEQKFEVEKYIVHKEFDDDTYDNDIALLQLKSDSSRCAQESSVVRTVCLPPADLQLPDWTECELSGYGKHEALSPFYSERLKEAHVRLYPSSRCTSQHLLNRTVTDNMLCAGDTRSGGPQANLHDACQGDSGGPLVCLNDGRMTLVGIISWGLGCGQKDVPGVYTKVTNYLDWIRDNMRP
# Chain of glandular kallikrein (P00752 8-246): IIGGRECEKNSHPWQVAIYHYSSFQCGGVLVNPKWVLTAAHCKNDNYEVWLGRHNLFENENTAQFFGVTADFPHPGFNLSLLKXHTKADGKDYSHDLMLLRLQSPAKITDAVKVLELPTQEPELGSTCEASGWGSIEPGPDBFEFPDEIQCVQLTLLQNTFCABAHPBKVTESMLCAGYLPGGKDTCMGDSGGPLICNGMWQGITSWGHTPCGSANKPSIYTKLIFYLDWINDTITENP
# T3 sequence (P03952 391-638 limits assumed, species assumed): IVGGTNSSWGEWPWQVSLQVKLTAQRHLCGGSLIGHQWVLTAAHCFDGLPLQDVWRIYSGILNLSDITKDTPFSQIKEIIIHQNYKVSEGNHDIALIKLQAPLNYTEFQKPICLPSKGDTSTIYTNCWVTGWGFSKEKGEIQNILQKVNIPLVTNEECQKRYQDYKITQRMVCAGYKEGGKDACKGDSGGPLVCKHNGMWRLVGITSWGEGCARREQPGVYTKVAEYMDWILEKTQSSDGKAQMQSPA
# T3 sequence (P03952 20-390 partner limits assumed, species assumed): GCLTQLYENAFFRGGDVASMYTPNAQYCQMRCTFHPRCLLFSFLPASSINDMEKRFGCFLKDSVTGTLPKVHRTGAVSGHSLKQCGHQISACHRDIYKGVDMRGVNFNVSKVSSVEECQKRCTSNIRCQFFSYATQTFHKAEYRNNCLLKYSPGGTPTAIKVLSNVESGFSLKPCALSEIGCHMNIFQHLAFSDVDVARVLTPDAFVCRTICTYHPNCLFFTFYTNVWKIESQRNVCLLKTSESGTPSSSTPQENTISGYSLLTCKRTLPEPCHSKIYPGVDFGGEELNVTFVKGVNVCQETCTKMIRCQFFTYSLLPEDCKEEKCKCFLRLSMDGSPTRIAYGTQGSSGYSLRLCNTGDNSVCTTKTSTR
# Chain of factor Xa (P00743 234-492 limits assumed): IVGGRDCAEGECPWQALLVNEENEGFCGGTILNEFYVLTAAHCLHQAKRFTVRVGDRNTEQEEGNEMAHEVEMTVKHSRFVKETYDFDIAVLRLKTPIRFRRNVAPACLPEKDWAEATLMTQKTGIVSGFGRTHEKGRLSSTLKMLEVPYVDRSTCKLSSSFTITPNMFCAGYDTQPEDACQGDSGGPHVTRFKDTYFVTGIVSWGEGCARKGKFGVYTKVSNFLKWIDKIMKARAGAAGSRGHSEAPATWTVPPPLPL
# Chain of factor Xa (P00743 41-180 partner limits assumed): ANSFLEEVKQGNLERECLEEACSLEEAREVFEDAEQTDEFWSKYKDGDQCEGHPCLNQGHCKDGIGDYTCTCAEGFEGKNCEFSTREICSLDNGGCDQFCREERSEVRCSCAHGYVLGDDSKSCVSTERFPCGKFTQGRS
compound,measurement,setting,value
CC1CCN(C(=O)C(Cc2cccc(C(=N)N)c2)NS(=O)(=O)c2ccc3ccccc3c2)CC1 (racemic) [Compound 34],Ki,plasmin,4 µM
same,Ki,tPA,460 µM
same,Ki,factor XIIa,> 1000 µM
same,influence on prothrombin time (PT),human plasma,obtained by higher inhibitor concentrations
BOC-D-Phe-Pro-Boro-Arg-C10 H16,absorption after oral administration,[1],absorption after oral administration has so far only been observed
CN[C@H](Cc1ccccc1)C(=O)N1CCC[C@H]1C(=O)N[C@H](C=O)CCCN=C(N)N [N-methyl-D-Phe-Pro-Arg-H],absorption after oral administration,[1],absorption after oral administration has so far only been observed
"N=C(N)c1cccc(C[C@H](NS(=O)(=O)c2ccc3ccccc3c2)C(=O)N2CCC[C@@H]2C(=O)O)c1 [Compound 123, N-α-(2-Naphthylsulfonyl)-3-amidino-(L)-phenylalanyl-(D)-proline hydrochloride]",concentration at 0.25 h,[2],792 ng/mL
same,concentration at 0.5 h,[2],1340 ng/mL
same,concentration at 0.75 h,[2],1380 ng/mL
same,concentration at 1.5 h,[2],1780 ng/mL
same,concentration at 2 h,[2],1600 ng/mL
same,concentration at 3 h,[2],1140 ng/mL
same,concentration at 4 h,[2],927 ng/mL
same,Ki,plasma kallikrein,59 µM
same,Ki,trypsin,0.96 µM
same,anticoagulant / antithrombin effect in plasma of experimental animals,[3],the antithrombin effect can be detected in the clotting test
same,Ki,glandular kallikrein,> 1000 µM
same,Ki,plasmin,95 µM
same,concentration at 0.25 h,[4],230 ng/mL
same,concentration at 0.5 h,[4],170 ng/mL
same,concentration at 1 h,[4],100 ng/mL
same,concentration at 1.5 h,[4],133 ng/mL
same,concentration at 3 h,[4],96 ng/mL
same,concentration at 4 h,[4],67 ng/mL
same,Ki,factor Xa,220 µM
same,Ki,thrombin,0.68 µM
same,Ki,tPA,300 µM
same,pharmacokinetic properties,"[5]; in words, compared with NAPAP",improved pharmacokinetic properties
same,Concentration in plasma,"[5]; rat, i.v. 1 mg/kg, 240 min",0 ng/mL
same,concentration at 2 min,"[5]; rat, plasma, iv, 1 mg/kg",2330 ng/mL
same,concentration at 5 min,"[5]; rat, plasma, iv, 1 mg/kg",1180 ng/mL
same,concentration at 10 min,"[5]; rat, plasma, iv, 1 mg/kg",660 ng/mL
same,concentration at 0.25 h,"[5]; rat, plasma, iv, 1 mg/kg",440 ng/mL
same,concentration at 0.5 h,"[5]; rat, plasma, iv, 1 mg/kg",260 ng/mL
same,concentration at 0.75 h,"[5]; rat, plasma, iv, 1 mg/kg",185 ng/mL
same,concentration at 1 h,"[5]; rat, plasma, iv, 1 mg/kg",160 ng/mL
same,concentration at 1.5 h,"[5]; rat, plasma, iv, 1 mg/kg",68 ng/mL
same,concentration at 2 h,"[5]; rat, plasma, iv, 1 mg/kg",32 ng/mL
same,concentration at 3 h,"[5]; rat, plasma, iv, 1 mg/kg",22 ng/mL
same,Ki,factor XIIa,> 1000 µM
same,LD50 at 168 h,in vivo; iv,188 mg/kg
same,LD50 at 168 h,in vivo; po,> 3000 mg/kg
